This is an account of results in patent publication US20110207689A1, “THE TREATMENT OF HEARING LOSS” (Auckland UniServices Limited, priority 2008, published 2011).

Holding throughout (assay type): in vivo, Wistar rats
For assay [1], the system named is organ of Corti hair cells. Description: Hair cell loss, phalloidin-stained organ of Corti after 24 hours noise (Experiment 1). Particulars: basal turn, noise 8-12 kHz 110 dB SPL 24 hours, versus vehicle. An excerpt: After the last ABR measurement, rats were killed by Pentobarbitone overdose and cochleae removed for histological analysis. The isolated cochleae were kept in 4% Paraformaldehyde overnight, until further processing (decapsulation or decalcification).
(§1) After the overnight fixation, the cochlea was decapsulated in 0.1 M PBS, to isolate the organ of Corti. The organ of Corti was removed with fine forceps, and separated into the apical, middle and basal turns. Wholemount tissues of the organ of Corti were placed into a 24-well plate, and then permeabilised with 1% Trition-X in 0.1 M PBS for 1 hour. 1% Alexa Fluor 488 phalloidin (Invitrogen) dissolved in 0.1 M PBS was used to stain the hair cells and their stereocilia. Tissues were incubated in phalloidin for 40 minutes, washed with 0.1 M PBS 3×10 min and mounted onto glass slides using CitiFlour. The slides were visualised using a Zeiss epi-fluorescence microscope and processed with Axiovision v3.1 software, using dark field filter and 100×, 200×, and 400× magnification. Non-overlapping images were taken for the entire length of the cochlea, and the number of missing outer hair cells was counted for each turn and presented as a percentage of total number of hair cells.

Assay [2] relates to organ of Corti hair cells. Description: Hair cell counts after acute (2 hours) noise exposure (Experiment 2). As to conditions: 2 h noise 110 dB SPL; five ADAC injections; vehicle 23-34%. As to the method: as §1
The percentage of total number of hair cells was determined as for Experiment 1.
The outer and inner hair cells were counted in Alexa 488 phalloidin-labelled surface preparation of the organ of Corti in the basal, middle and apical turns and the percentage of missing hair cells was calculated for each turn.

Assay [3] has as its system rats exposed to 8-12 kHz band noise for 2 hours at 110 dB SPL. Description: ABR threshold shifts after acute (2 hours) noise exposure, systemic ADAC (Experiment 2). As to conditions: 14 days post-noise. The method, then:
ABRs were measured in response to auditory clicks and pure tones (4-28 kHz) before and at time intervals (30 minutes and 14 days) after noise exposure. Five ADAC injections (100 μg/kg i.p.) were administered at 24 hour intervals commencing 6 hours post-noise. In the control group, injections of the vehicle solution were administered at the same intervals as ADAC. Data are expressed as means±SEM. Animal numbers: n=8 per group. *p<0.05; **p<0.01; unpaired t-test.
Rats were exposed to 8-12 kHz band noise presented for 2 hours at 110 dB SPL. […]
ABRs were obtained by placing fine platinum electrodes subdermally at the mastoid region of the ear of interest (active electrode), scalp vertex (reference) and mastoid region of the opposite ear (ground electrode). […] The sound threshold of the ABR complex (waves I-IV) were determined by progressively attenuating the sound intensity until the waveform can no longer be observed. The acoustic stimuli for ABR were produced and the responses recorded using a Tucker-Davis Technologies auditory physiology workstation (Alachua, Fla., USA).
All ABR measurements were performed in a sound attenuator chamber (Shelburg Acoustics, Sydney, Australia). […] The ABR threshold was defined as the lowest intensity (to the nearest 5 dB) at which a response could be visually detected above the noise floor. […]

The structures appear in SMILES notation.

`NCCNC(=O)Cc1ccc(NC(=O)Cc2ccc(Nc3ncnc4c3ncn4[C@@H]3O[C@H](CO)[C@@H](O)[C@H]3O)cc2)cc1` [ADAC, adenosine amine congener]: in assay [1], the “hair cell morphology, surface preparation of the organ of Corti” value is recorded as “well preserved hair cell morphology”. For the same compound, in assay [2], the “hair cell loss, basal cochlear turn (average)” value amounted to 9% and the “hair cell loss, middle cochlear turn (average)” value was 7%. Further, the “ABR threshold shifts versus vehicle-treated controls” value in assay [3] (five ADAC injections) was “threshold shifts were reduced”. In addition, the “threshold recovery, highest” value in assay [3] (pure tone frequencies 4 to 16 kHz, five ADAC injections 100 μg/kg i.p. commencing 6 hours post-noise) is “up to 30 dB”.
